Results taken from US20210100737A1, “TRANSDERMAL DELIVERY OF DRONABINOL” (Starton Therapeutics, Inc., priority 2019, published 2021).

Legend:
[1] = in 96 hrs through human cadaver skin; U.S. Pat. No. 8,449,908; cited from earlier work
[2] = cited from earlier work
[3] = Delivery of THC through human cadaver skin (U.S. Pat. No. 8,449,908); format: in vitro ADME; settings: calculated from the cumulative amount in 96 hrs
Method: U.S. Pat. No. 8,449,908 provides delivery of the cumulative amount of 10000 ng THC in 96 hrs through the human cadaver skin. This amount represents the flux of 60 ng/cm^2/hr. The patch area can be calculated using following equation: […]
In order to deliver a therapeutic dosage of 5 mg/day of delta-9-THC, a transdermal formulation would need to cover at least […] surface area of the patient's skin. This is an impractical patch size for any transdermal drug delivery system (TDDS).

[4] = dosage of 7 mg/m^2; cited from earlier work

CCCCCc1cc(O)c2c(c1)OC(C)(C)[C@@H]1CCC(C)=C[C@@H]21 (relative stereo) [dronabinol, (6aR-trans)-6a,7,8,10a-tetrahydro-6,6,9-trimethyl-3-pentyl-6H-dibenzo[b,d]pyran-1-ol]
cumulative amount of THC delivered [1]: 10000 ng | share of the administered dose that reaches systemic circulation ([2]; after oral administration, first pass hepatic metabolism): 10%-20% | Alpha half-life ([2]; in vivo): about 4 hours | flux [3]: 60 ng/cm^2/hr | adverse effects [4]: not induced
